Measurements reported in patent US7169815B2, “3-methoxybenzyl thiourea derivatives and improved lipid compositions containing same” (The United States of America as represented by the …, priority 2000, dated 2007).
In brackets after ≈: the same amount, converted by molar mass. Like-named read-outs stand apart in the source and are kept apart here.

Experiments:
[1] = Oxidative Stability by Rotating Pressure Vessel (RBOT) of refined meadowfoam seed oil plus thiourea compounds; conditions: Refined Meadowfoam Seed Oil plus 0.1% compound
Text: Another presently preferred method of determining oxidative stability of lipids and oils employs the Oxidative Stability by Rotating Pressure Vessel (RBOT) test. In this test, oxidative stability, determined according to the ASTM D2272-98 test method (ASTM, 2001, “Standard Test Method for Oxidation Stability of Steam Turbine Oils by Rotating Pressure Vessel,” in Book of Standards, Vol. 05.01., American Society for Testing and Materials, West Conshohocken, Pa.), measures the time for oxygen pressure to decrease in a closed stainless steel vessel containing a lipid or oil when heated with a copper coil catalyst. Oxygen taken up by the lipid or oil during the reaction is an indication of oil degradation.
In these experiments, Oxidative Stability by Rotating Pressure Vessel (RBOT) tests were performed with different 3-methoxybenzyl thiourea compounds synthesized in Example 3 that were mixed in different quantities with different mono- and polyunsaturated vegetable oils. Hexane was used to clean and store the copper coils, but all other aspects of the Oxidative Stability by Rotating Pressure Vessel (RBOT) test were the same as in the standard ASTM D2272–98 test method (ASTM, 2001, “Standard Test Method for Oxidation Stability of Steam Turbine Oils by Rotating Pressure Vessel,” in Book of Standards, Vol. 05.01., American Society for Testing and Materials, West Conshohocken, Pa.).

[2] = UVB and UVA molar absorptivities in chloroform; type: physicochemical; conditions: 0.01 mg/ml in chloroform; for UVBMAX Molar Absorptivity: Amax in 280–320 nm; for UVAMAX Molar Absorptivity: Amax in 320–400 nm
Description: The compounds synthesized in Example 3 were tested to determine their ability to absorb […] UVA light. UV spectra of quantitatively weighed and diluted samples (0.01 mg/ml) in chloroform were scanned from 244–450 nm at 240 nm/min on a Beckman DU 640 spectrophotometer (Beckman Coulter, Inc., Fullerton, Calif.). Amax in the 280–320 nm range was determined and converted to molar absorptivity for the UVB region, and Amax in the 320–400 nm range was determined and converted to molar absorptivity for the UVA region.

in vivo = conditions: Artemia salina (brine shrimp), in vivo; for LC50 at 24 h: other: exposure in seawater in microplate wells
Description: (§1) Brine shrimp eggs (Artemia salina) were obtained from Brine Shrimp Direct, Ogden, Utah and stored at 10° C. until used. Eggs (400 mg) were added to 1 l of deionized water containing 40 g of sea salts (Sigma Chemical Co., St. Louis, Mo.).
(§2) Serial dilutions were performed in 100 μl of seawater in triplicate in the wells of a 96-well microplate to give appropriate concentrations. Control wells for both water and DMSO were included with each experiment. […] The number of non-motile, and the total number of, naupli were counted in each well using a binocular microscope (10×).

[3] = test system: Brine Shrimp (Artemia Salina); assay: in vivo; conditions: for LC50: in vivo
Description: as §1, §2

[4] = Solubility in refined meadowfoam seed oil (HPLC); type: physicochemical; conditions: oil or lipid, thermodynamic from solid, cooled to room temperature overnight
Description: Typical retention times were 7–9 min for the thioureas. Samples were weighed accurately (about 0.1 g) into 1.00 g of refined meadowfoam seed oil and heated to temperature (either 30° C. or 50° C.) for 4 h with occasional shaking. The samples were cooled to room temperature overnight, centrifuged and 0.3 g of the supernatant oil was removed and diluted with 1 ml CHCl3 for testing.

[5] = Decomposition temperature by differential scanning calorimetry; type: physicochemical; conditions: DSC, onset of decrease in slope of temperature-heat flow curve; unit not given (scans in ° C.)
Description: A dual cell Perkin Elmer differential scanning calorimeter (PE DSC 7, Norwalk, Conn.) was used to determine the thermal transitions of the compounds. All scans were carried out from 30° C. to 200° C. at a heating and cooling rate of 10° C./minute and 40° C./min, respectively, except for 1-(3-methoxybenzyl)-3-(1-propenyl) thiourea, for which the scans were carried out from 0° C. to 200° C. at a heating rate of 10° C./min, and 1-(3-methoxybenzyl)-3-octadecyl thiourea, for which both the heating and cooling rates were 10° C./min. 1,3-di(3-methoxybenzyl) thiourea and 1-(3-methoxybenzyl)-3-dodecyl thiourea were heated to 300° C., and 1-(3-methoxybenzyl)-3-(4-methoxybenzoyl) thiourea was heated to 250° C. to determine the decomposition temperature. The decomposition temperature was taken as the onset of a decrease in the slope of the temperature-heat flow DSC curve. The first heating curve was recorded in all cases, and liquid nitrogen was used to quench the samples after the first heating.

[6] = Oxidative Stability Index (OSI) of refined meadowfoam seed oil plus additives
Text: A presently preferred method of determining oxidative stability of lipids and oils employs the Oxidative Stability Index (OSI), which determines the oxidative stability of an oil by passing air through a sample under stringent temperature control. (Firestone, Oxidative Stability Index (OSI): Official Methods of Recommended Practices of the American Oil Chemists' Society (AOCS), 4th Ed. American Oil Chemists Society, Champaign, Ill., AOCS Official Method Cd 12b-92, 1993.) In this method, a stream of air is passed through the oil sample, which aids in the rapid degradation of the triglyceride into volatile organic acids. The air stream flushes the volatile acids from the oil into a conductivity cell containing water where the acids are solubilized. These acids, once dissolved in the water solution, disassociate into ions, thus changing the conductivity of the water. Therefore, a continuous measure of the conductivity of the cell by computer will indicate when a rapid rise in the conductivity occurs that corresponds to the induction point, oxidative failure of the sample. The time to the induction point is the OSI time. […] Saturated fatty acid methyl ester (FAME) standards commercially available from Alltech Associates (Deerfield, Ill.) may be used to calibrate the OSI determinations.
OSI determinations may be performed on an oxidative stability instrument manufactured by Omnion (Rockland, Mass.) using the AOCS method described in the above-disclosed Firestone reference. Lipid or oil samples may be run at 110° C. and FAMEs may be tested at 90° C., with air flow set at 35 kPa with a resulting velocity of about 140 ml/min. A presently preferred method for determining OSI values is described by T. A. Isbell et al., “Oxidative Stability Index of Vegetable Oils in Binary Mixtures with Meadowfoam Oil,” Industrial Crops and Products 9, 115–123 (1999).
Unless otherwise stated, Oxidative Stability Index (OSI) values were determined on 5.00 ±0.05 g lipid or oil samples in triplicate according to AOCS Official Method Cd 12b-92 (AOCS, 1993) at 90° C., 110° C. and/or 130° C. on an oxidative stability instrument manufactured by Omnion (Rockland, Mass.). Details of the procedure have been published by Isbell et al., “Oxidative Stability Index of Vegetable Oils in Binary Mixtures with Meadowfoam Oil,” Ind. Crops Prod. 9, 115–123 (1999). When compounds of the present invention were added to the lipid or oil sample being tested, the compounds (0.1% to 1.0% by weight) were added to the test lipid or oil (20 g) and dissolved or dispersed at room temperature before triplicate 5.00 g samples of lipid or oil with an added compound of the invention were weighed into the OSI test tube.
The 1,3-di(3-methoxybenzyl) thiourea prepared in Example 3 was mixed at 0.1%, 0.5% or 1.0% with refined meadowfoam seed oil (Lot #CW-4551, The Fanning Corp) and the oxidative stability of the mixtures was compared to that of refined meadowfoam seed oil at 130° C. The OSI times were 49.8 h, 159 h and 172 h, respectively, for the mixtures containing the thiourea compared to an OSI time of 14.9 h for this lot of refined meadowfoam seed oil with no additives at 130° C.
Thus, 1,3-bis(2-methoxyphenyl)-2-thiourea (Aldrich Chem Co.) added at 0. […] Likewise, 1,3-bis(3-methoxyphenyl)-2-thiourea at 0. 1% added to refined meadowfoam oil gave an OSI time of 27.0 h, an […] lower value than for the 1,3-di-(3-methoxybenzyl) thiourea produced in Example 3.

[7] = Behaviour on addition of water to DMSO solution (sample preparation); type: physicochemical; conditions: dissolved in 50 μl DMSO, water added to make 1 mg/ml
Description: Test compounds (1–2 mg) were originally made up at a concentration of 1 mg/ml in artificial seawater, except for water insoluble compounds, which were dissolved in 50 μl of dimethyl sulfoxide (DMSO) prior to adding enough water to make a 1 mg/ml solution. Serial dilutions were performed in 100 μl of seawater in triplicate in the wells of a 96-well microplate to give appropriate concentrations. Control wells for both water and DMSO were included with each experiment. A 100 μl solution of naupli (10–30) was added to each well, and the covered plate was incubated for 24 h at 27° C. The number of non-motile, and the total number of, naupli were counted in each well using a binocular microscope (10×). LC50 values were then calculated by Probit analysis (Finney, D. J., 1971, “Probit Analysis,” 3rd Ed.; University Press: Cambridge [Eng.]).

[8] = heated to 30° C. for 4 h, read-out: Solubility at 30° C.
[9] = heated to 50° C. for 4 h, read-out: Solubility at 50° C.
[10] = refined meadowfoam oil, 0.1% additive, 130° C.
[11] = refined meadowfoam oil, 0.1% additive, 130° C. (Example 8)
[12] = refined meadowfoam seed oil plus additive 0.1%, 130° C.
[13] = refined meadowfoam seed oil plus additive 0.5%, 130° C.
[14] = refined meadowfoam seed oil plus additive 1.0%, 130° C.

## C=CCNC(=S)NCc1cccc(OC)c1
[1]
  Oxidative Stability (RBOT): 24 min
[2]
  UVBMAX Molar Absorptivity: 2852
  UVAMAX Molar Absorptivity: 0.0
In vivo
  LC50: 232 µg/mL (≈ 982 µM)
[3]; as Table 7 shows
  toxicity against brine shrimp, in words: low toxicity
[4]; [8]
  solubility at 4 h: 1670 µg/mL (≈ 7070 µM)
[4]; [9]
  solubility at 4 h: 981 µg/mL (≈ 4150 µM)
[5]
  Decomposition Temperature: > 200 °C

## COc1ccccc1NC(=S)Nc1ccccc1OC [1,3-bis(2-methoxyphenyl)-2-thiourea]
[6]; [10]
  OSI time lower than for 1,3-di-(3-methoxybenzyl) thiourea: 34%
[6]; [11]
  OSI Time: 37.1 h

## COc1cccc(NC(=S)Nc2cccc(OC)c2)c1 [1,3-bis(3-methoxyphenyl)-2-thiourea]
[6]; [10]
  OSI time lower than for 1,3-di-(3-methoxybenzyl) thiourea: 84%
[6]; [11]
  OSI Time: 27.0 h

## COc1ccc(C(=O)NC(=S)NCc2cccc(OC)c2)cc1 [1-(3-methoxybenzyl)-3-(4-methoxybenzoyl) thiourea]
[1]
  Oxidative Stability (RBOT): 24 min
[2]
  UVBMAX Molar Absorptivity: 34090
  UVAMAX Molar Absorptivity: 1420
In vivo
  LC50 at 24 h: 58 µg/mL (≈ 176 µM)
[4]; [8]
  solubility at 4 h: 2760 µg/mL (≈ 8350 µM)
[4]; [9]
  solubility at 4 h: 1930 µg/mL (≈ 5830 µM)
[5]
  Decomposition Temperature: > 200 °C

## COc1cccc(CNC(=S)NCc2ccccc2)c1 [1-(3-methoxybenzyl)-3-benzyl thiourea]
[1]
  Oxidative Stability (RBOT): 26 min
[2]
  UVBMAX Molar Absorptivity: 2357
  UVAMAX Molar Absorptivity: 0.0
In vivo
  LC50 at 24 h: 31.6 µg/mL (≈ 110 µM)
[4]; [8]
  solubility at 4 h: 1050 µg/mL (≈ 3670 µM)
[4]; [9]
  solubility at 4 h: 1040 µg/mL (≈ 3620 µM)
[5]
  Decomposition Temperature: > 200 °C

## CCCCCCCCCCCCCCCCCCNC(=S)NCc1cccc(OC)c1 [1-(3-methoxybenzyl)-3-octadecyl thiourea]
[1]
  Oxidative Stability (RBOT): 15 min
[2]
  UVBMAX Molar Absorptivity: 850
  UVAMAX Molar Absorptivity: 0.0
In vivo
  LC50 at 24 h: 62.5 µg/mL (≈ 139 µM)
[4]; [8]
  solubility at 4 h: 280 µg/mL (≈ 624 µM)
[4]; [9]
  solubility at 4 h: 147 µg/mL (≈ 328 µM)
[5]
  Decomposition Temperature: > 200 °C
[7]
  behaviour upon the addition of water: precipitated out of solution

## COc1cccc(C=O)c1 [3-methoxybenzaldehyde]
[6]; [12]
  OSI Time: 17.5 h
[6]; [13]
  OSI Time: 17.4 h
[6]; [14]
  OSI Time: 18.9 h

## COc1cccc(CN)c1 [3-methoxybenzyl amine]
[6]; [12]
  OSI Time: 22.9 h
[6]; [13]
  OSI Time: 27.3 h
[6]; [14]
  OSI Time: 32.6 h

## COc1cccc(CN=C=S)c1 [3-methoxybenzyl isothiocyanate]
[6]; [12]
  OSI Time: 19.1 h
[6]; [13]
  OSI Time: 22.9 h
[6]; [14]
  OSI Time: 24.0 h

## COc1cccc(CC#N)c1 [3-methoxyphenyl acetonitrile]
[6]; [12]
  OSI Time: 18.6 h
[6]; [13]
  OSI Time: 19.2 h
[6]; [14]
  OSI Time: 19.9 h

## Cc1c(C)c2c(c(C)c1O)CC[C@@](C)(CCC[C@H](C)CCC[C@H](C)CCCC(C)C)O2 [D-α-tocopherol, reference compound]
[3]
  LC50: >1000 µg/mL

## O=C1O[C@H]([C@@H](O)CO)C(O)=C1O [ascorbic acid, reference compound]
In vivo
  LC50 at 24 h: 315 µg/mL (≈ 1790 µM)

## COc1ccc(O)c(C(C)(C)C)c1 [butylated hydroxy aniline (BHA), butylated hydroxy aniline, reference compound]
[3]
  LC50: 12.2 µg/mL (≈ 67.7 µM)

## O=C(O)/C=C/c1ccccc1 [trans-cinnamic acid, reference compound]
[2]
  UVBMAX Molar Absorptivity: 22350
  UVAMAX Molar Absorptivity: 54
